Reference: ChEMBL document CHEMBL3045341, “Triterpene saponins of Quillaja saponaria show strong aphicidal and deterrent activity against the pea aphid Acyrthosiphon pisum” (2012)
≈ marks a conversion by molar mass, not a printed value.

How the values were obtained:
Format in all cases: functional
Conditions in all cases: 72 h
Acyrthosiphon pisum [1] = assay: Insecticidal activity against Acyrthosiphon pisum (pea aphid) assessed as mortality at 5 mg/ml after 3 days by no-choice assay
Acyrthosiphon pisum [2] = assay: Insecticidal activity against Acyrthosiphon pisum (pea aphid) assessed as mortality at 1 mg/ml after 3 days by no-choice assay
Acyrthosiphon pisum [3] = assay: Insecticidal activity against Acyrthosiphon pisum (pea aphid) after 3 days by no-choice assay

Row | SMILES | mortality at 5000 µg/mL (Acyrthosiphon pisum [1]) | mortality at 1000 µg/mL (Acyrthosiphon pisum [2]) | LC50 (Acyrthosiphon pisum [3])
1 | C[C@@H]1CC[C@@]2(OC1)O[C@H]1C[C@H]3[C@@H]4CC=C5C[C@@H](O)CC[C@]5(C)[C@H]4CC[C@]3(C)[C@H]1[C@@H]2C [DISOGENIN] | 18% | – | –
2 | C[C@@H]1CC[C@@]2(OC1)O[C@H]1[C@@H](O)[C@H]3[C@@H]4CC[C@H]5C[C@@H](O[C@@H]6O[C@H](CO)[C@H](O[C@@H]7O[C@H](CO)C(O)[C@H](O[C@@H]8OC[C@@H](O)[C@H](O)[C@H]8O)[C@H]7O[C@@H]7O[C@H](CO)[C@H](O)[C@H](O[C@@H]8O[C@H](CO)[C@@H](O)[C@H](O)[C@H]8O)[C@H]7O)[C@H](O)[C@H]6O)[C@H](O)C[C@]5(C)[C@H]4CC[C@]3(C)[C@H]1[C@@H]2C (some centres undefined) [DIGITONIN] | 14% | 76% | 0.45 µg/mL (≈ 0.366 µM)
